How the values were obtained:
PDE4D = PDE4D (Homo sapiens, UniProt Q08499); assay: Inhibitory action on PDE4 (homogenate of BHK cells expressing cloned human PDE4D, [3H]-cAMP hydrolysis); type: biochemical; settings: average in triplicate measurements; 1 μM [3H]-cAMP substrate; read-out: PDE4 Inhibition IC50
Method: Inhibitory Action on PDE4: PDE4D was cloned from human placental mRNA by PCR techniques, and cDNA after an alternative spliced site (Mol. Cell. Biol., 13, 6558, 1993) was expressed in BHK cells. Two clones of BHK cells expressing PDE4 activity which was 100 or more times as high as endogenous PDE4 activity were obtained, and one of the clones was cultured in a large amount, and its homogenate was used as an enzyme source of PDE4.
50 mM Tris-HCl (pH 8.0), 0.1 mM EGTA, 0.1 mM MgCl2, 1 μM [^3H]-cGMP (100,000 dpm/tube) or 1 μM [^3H]-cAMP (100,000 dpm/tube) was added to the above homogenate, and 0.2 ml of the mixture was incubated at 30° C. for 10 to 20 minutes in the presence or absence of a test compound. The enzyme reaction was stopped by incubating the mixture at 95° C. for 1.5 minutes, and after cooling on ice, 50 μl nucleotidase (10 units/ml) was added thereto and incubated at 30° C. for 10 minutes. 550 μl of AG1-X2 resin slurry (H2O:resin=2:1) was added to the reaction mixture, then left at 4° C. for 10 minutes and centrifuged (10,000 rpm, 2.5 minutes, 4° C.), and 450 μl of the supernatant was measured for radioactivity.
The activity was compared in terms of IC50 (concentration of the compound at which 50% of the enzyme activity is inhibited) IC50 was determined by plotting of the concentration of cAMP as the substrate and the concentration of the compound on logarithmic graph paper. The results shown in Table 1 are the average in triplicate measurements. The test compound was first dissolved in DMSO and then diluted with the above-mentioned buffer for use.

Chain of PDE4D (Q08499 303-809 limits assumed): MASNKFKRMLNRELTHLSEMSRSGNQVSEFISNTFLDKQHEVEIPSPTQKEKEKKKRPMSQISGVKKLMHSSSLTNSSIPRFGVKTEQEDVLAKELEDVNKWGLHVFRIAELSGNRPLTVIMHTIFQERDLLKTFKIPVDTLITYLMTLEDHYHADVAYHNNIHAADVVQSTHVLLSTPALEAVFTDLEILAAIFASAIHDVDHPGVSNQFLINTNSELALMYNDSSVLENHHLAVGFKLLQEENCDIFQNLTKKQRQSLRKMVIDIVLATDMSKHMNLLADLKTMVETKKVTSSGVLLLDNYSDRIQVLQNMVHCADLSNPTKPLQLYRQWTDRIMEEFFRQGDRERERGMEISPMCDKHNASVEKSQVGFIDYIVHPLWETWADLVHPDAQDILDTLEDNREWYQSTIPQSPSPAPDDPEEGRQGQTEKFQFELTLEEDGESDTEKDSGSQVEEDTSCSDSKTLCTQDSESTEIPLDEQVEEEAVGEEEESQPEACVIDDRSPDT

`CNc1nc(-c2cccc(NC(=O)c3ccc(OC)c(OC4CCCC4)c3)c2)c2cc(OC)c(OC)cc2n1` [Example 17, 4-[3-(3-Cyclopentyloxy-4-methoxybenzoylamino)phenyl]-6,7-dimethoxy-2-methylaminoquinazoline] showed a melting point of 129 to 131 °C and an IC50 (PDE4D) of 4.2 nM.

For `CNc1nc(-c2cccc(NC(=O)c3ccc(O)cc3)c2)c2cc(OC)c(OC)cc2n1` [Example 21, 6,7-Dimethoxy-4-[3-(4-hydroxybenzoylamino)phenyl]-2-methylaminoquinazoline], the melting point was 178 to 180 °C and the IC50 (PDE4D) was 2.2 nM.

Work on `CNc1nc(-c2cccc(NC(=O)c3ccc(N(C)C)nc3)c2)c2cc(OC)c(OC)cc2n1` [Example 30, 6,7-Dimethoxy-4-[3-(6-dimethylaminonicotinoylamino)phenyl]-2-methylaminoquinazoline] yielded a melting point of 149 to 151 °C and an IC50 (PDE4D) of 2.6 nM.

`CNc1nc(-c2cccc(NC(=O)c3ccc(N4CCCC4)nc3)c2)c2cc(OC)c(OC)cc2n1` [Example 31, 6,7-Dimethoxy-2-methylamino-4-[3-(6-pyrrolidinonicotinoylamino)phenyl]quinazoline] gave a melting point of 239 to 241 °C and an IC50 (PDE4D) of 2.5 nM.

With `CNc1nc(-c2cccc(NC(=O)c3ccnc(N4CCCC4)c3)c2)c2cc(OC)c(OC)cc2n1` [Example 34] the melting point was 135 to 137 °C and the IC50 (PDE4D) was 3.1 nM.

For `CNc1nc(-c2cccc(N3Cc4ccccc4C3)c2)c2cc(OC)c(OC)cc2n1` [Example 44, 6,7-Dimethoxy-4-[3-(2-isoindolynyl)phenyl]-2-methylaminoquinazoline], the melting point was 194 to 196 °C and the IC50 (PDE4D) was 2.5 nM.

Compound `CNc1nc(-c2cccc(N3Cc4ccccc4C3=O)c2)c2cc(OC)c(OC)cc2n1` [Example 45, 6,7-Dimethoxy-4-[3-(1-oxo-2-isoindolynyl)phenyl]-2-methylaminoquinazoline] has a melting point of 230 to 232 °C and an IC50 (PDE4D) of 0.72 nM.

`CNc1nc(-c2cccc(-c3cncc4ccccc34)c2)c2cc(OC)c(OC)cc2n1` [Example 51, 6,7-Dimethoxy-2-methylamino-4-[3-(4-isoquinolyl)phenyl]quinazoline] showed a melting point of 181 to 183 °C and an IC50 (PDE4D) of 3.2 nM.

For `CNc1nc(-c2cccc(-c3ccc(SC)cc3)c2)c2cc(OC)c(OC)cc2n1` [Example 52, 6,7-Dimethoxy-2-methylamino-4-(4′-methylthio-3-biphenylyl)quinazoline], the melting point was 140 to 142 °C and the IC50 (PDE4D) was 1.8 nM.

Compound `CNc1nc(-c2cccc(-c3ccc([S+](C)[O-])cc3)c2)c2cc(OC)c(OC)cc2n1` (centres unmarked) [Example 53, 6,7-Dimethoxy-2-methylamino-4-(4′-methylsulfinyl-3-biphenylyl)quinazoline] has a melting point of 153 to 155 °C and an IC50 (PDE4D) of 0.63 nM.

For `CNc1nc(-c2cccc(-c3cccc(SC)c3)c2)c2cc(OC)c(OC)cc2n1` [Example 54, 6,7-Dimethoxy-2-methylamino-4-(3′-methylthio-3-biphenylyl)quinazoline], the melting point was 195 to 197 °C and the IC50 (PDE4D) was 1.7 nM.

Work on `CNc1nc(-c2cccc(-c3cccc(-c4ccccc4)c3)c2)c2cc(OC)c(OC)cc2n1` [Example 56, 6,7-Dimethoxy-2-methylamino-4-(3′-phenyl-3-biphenylyl)quinazoline] yielded a melting point of 193 to 195 °C and an IC50 (PDE4D) of 1.2 nM.

In the case of `CNc1nc(-c2cccc(-c3cncc(SC)c3)c2)c2cc(OC)c(OC)cc2n1` [Example 58, 6,7-Dimethoxy-2-methylamino-4-[3-(5-methylthio-3-pyridyl)phenyl]quinazoline], the melting point is reported as 184 to 186 °C and the IC50 (PDE4D) is reported as 2.8 nM.

`CCOc1cc2nc(NC)nc(-c3cccc(-c4cnc5ccccc5c4)c3)c2cc1OCC` [Example 60, 6,7-Diethoxy-2-methylamino-4-[3-(3-quinolyl)phenyl]quinazoline] showed a melting point of 157 to 159 °C and an IC50 (PDE4D) of 0.22 nM.

`CCOc1cc2nc(NC)nc(-c3cccc(-c4cncc(SC)c4)c3)c2cc1OCC` [Example 61, 6,7-Diethoxy-2-methylamino-4-[3-(methylthio-3-pyridyl)phenyl]quinazoline] gave a melting point of 105 to 107 °C and an IC50 (PDE4D) of 0.6 nM.

For `CNc1nc(-c2cccc(-c3cncc(-c4ccccc4)c3)c2)c2cc(OC)c(OC)cc2n1` [Example 63, 6,7-Dimethoxy-2-methylamino-4-[3-(5-phenyl-3-pyridyl)phenyl]quinazoline], the melting point was 200 to 202 °C and the IC50 (PDE4D) was 0.6 nM.

In the case of `CNc1nc(-c2cccc(-c3cnc4c(C)cccc4c3)c2)c2cc(OC)c(OC)cc2n1` [Example 64, 6,7-Dimethoxy-4-[3-(8-methyl-3-quinolyl)phenyl]-2-methylaminoquinazoline], the melting point is reported as 188 to 190 °C and the IC50 (PDE4D) is reported as 0.19 nM.

Work on `CNc1nc(-c2cccc(C#Cc3ccccc3)c2)c2cc(OC)c(OC)cc2n1` [Example 65, 6,7-Dimethoxy-2-methylamino-4-[3-(2-phenylethynyl)phenyl]quinazoline] yielded a melting point of 102 to 104 °C and an IC50 (PDE4D) of 2.5 nM.

Work on `CNc1ccc(C#Cc2cccc(-c3nc(NC)nc4cc(OC)c(OC)cc34)c2)cn1` [Example 68, 6,7-Dimethoxy-2-methylamino-4-[3-[2-(6-methylamino-3-pyridyl)ethynyl]phenyl]quinazoline] yielded a melting point of 136 to 138 °C.

Work on `CNc1nc(-c2cccc(/C=C/c3ccccc3)c2)c2cc(OC)c(OC)cc2n1` [Example 69, 6,7-Dimethoxy-2-methylamino-4-[3-(2-phenylethenyl)phenyl]quinazoline] yielded a melting point of 110 to 112 °C.

`CNc1nc(-c2cccc(C(=O)Nc3ccccc3)c2)c2cc(OC)c(OC)cc2n1` [Example 70, 6,7-Dimethoxy-2-methylamino-4-(3-phenylcarbamoylphenyl)quinazoline] showed a melting point of 242 to 244 °C.

Work on `CNc1nc(-c2cccc(C(=O)Nc3cccnc3)c2)c2cc(OC)c(OC)cc2n1` [Example 71, 6,7-Dimethoxy-2-methylamino-4-[3-(3-pyridyl)carbamoylphenyl]quinazoline] yielded a melting point of 238 to 240 °C.

With `CNc1nc(-c2cccc(OCc3ccccc3)c2)c2cc(OC)c(OC)cc2n1` [Example 72, 4-(3-Benzyloxyphenyl)-6,7-dimethoxy-2-methylaminoquinazoline] the melting point was 116 to 118 °C.

In the case of `CNc1nc(-c2cccc(Oc3ccccc3)c2)c2cc(OC)c(OC)cc2n1` [Example 73, 6,7-Dimethoxy-2-methylamino-4-(3-phenoxylphenyl)quinazoline], the melting point is reported as 157 to 159 °C.

With `CNc1nc(-c2ccc(-c3ccccc3)s2)c2cc(OC)c(OC)cc2n1` [Example 74, 6,7-Dimethoxy-2-methylamino-4-(5-phenyl-2-thienyl)quinazoline] the melting point was 201 to 203 °C.

`CNc1nc(-c2cncc(-c3ccccc3)c2)c2cc(OC)c(OC)cc2n1` [Example 75, 6,7-Dimethoxy-2-methylamino-4-(5-phenyl-3-pyridyl)quinazoline] showed a melting point of 177 to 179 °C.

Work on `CNc1nc(-c2cncc(Br)c2)c2cc(OC)c(OC)cc2n1` [Example 76, 4-(5-Bromo-3-pyridyl)-6,7-dimethoxy-2-methylaminoquinazoline] yielded a melting point of 228 to 230 °C.

For `CNc1nc(-c2cncc(-c3ccc(SC)cc3)c2)c2cc(OC)c(OC)cc2n1` [Example 77, 6,7-Dimethoxy-2-methylamino-4-[5-(4-methylthiophenyl)-3-pyridyl]quinazoline], the melting point was 170 to 172 °C.

In the case of `CNc1nc(-c2cncc(C#Cc3cccnc3)c2)c2cc(OC)c(OC)cc2n1` [Example 78, 6,7-Dimethoxy-2-methylamino-4-[5-[2-(3-pyridyl)ethynyl]-3-pyridyl]quinazoline], the melting point is reported as 208 to 211 °C.

Work on `CNc1ccc(C#Cc2cncc(-c3nc(NC)nc4cc(OC)c(OC)cc34)c2)cn1` [Example 79, 6,7-Dimethoxy-2-methylamino-4-[5-[2-(6-methylamino-3-pyridyl)ethynyl]-3-pyridyl]quinazoline] yielded a melting point of 160 to 162 °C.

For `CNc1nc(-c2cccc(NC(=O)c3ccccc3)c2)c2cc(OCc3ccccc3)c(OC)cc2n1` [Example 81, 4-(3-Benzoylaminophenyl)-6-benzyloxy-7-methoxy-2-methylaminoquinazoline], the melting point was 204 to 206 °C.

Compound `CNc1nc(-c2cccc(NC(=O)c3ccccc3)c2)c2cc(O)c(OC)cc2n1` [Example 82, 4-(3-Benzoylaminophenyl)-6-hydroxy-7-methoxy-2-methylaminoquinazoline] has a melting point of 145 to 147 °C.

Reference: patent US6352989B1, “Nitrogenous heterocyclic derivatives and medicine thereof” (Eisai Co., Ltd., priority 1998, dated 2002)
